From patent publication US20230293676A1, “Pharmaceutical Composition Comprising Hepatitis B Virus-Derived Polypeptide for Prevention or Treatment of Cancer” (priority 2020, published 2023)
Ends that are not written are not given here.

Columns and labels:
[1] = tested on: B16F10 murine melanoma cancer cell; assay: cytotoxicity against cancer cells by poly6-treated DC2.4 cells, FACS; assay type: cell-based
Experimental: (§1) FIG. 7 illustrates the results of confirming that the cytotoxicity of various cancer cell lines (MC38, B16F10, and EO771) was reduced when iNOS formation was inhibited by L-NAME (5 mM) treatment while stimulating DC2.4 cells with poly6 for 24 hours (statistical significance was tested by Student's t-test. *, P<0.05; **, P<0.01; and ***, P<0.001).

[2] = tested on: MC38 murine colon cancer cell; assay: as above; assay type: cell-based
Experimental: as §1

EO771 = assay: as above; assay type: cell-based, murine
Experimental: as §1

[3] = tested on: PanO2 murine pancreatic cancer cell; details: concentration-dependent
[4] = tested on: MDA231 human breast cancer cell; details: concentration-dependent
[5] = DC2.4 treated with 10 μM of poly6 vs LPS (1 μg/ml)
[6] = L-NAME 5 mM while stimulating DC2.4 with poly6 for 24 hours

Compound	cytotoxicity against cancer cells compared to LPS [1, 5]	cytotoxicity by poly6-stimulated DC2.4 cells ([1]; concentration-dependent)	cytotoxicity against cancer cells compared to LPS [2, 5]	cytotoxicity by poly6-stimulated DC2.4 cells ([2]; concentration-dependent)	cytotoxicity by poly6-stimulated DC2.4 cells (EO771; concentration-dependent)	cytotoxicity by poly6-stimulated DC2.4 cells [3]	cytotoxicity by poly6-stimulated DC2.4 cells [4]	cytotoxicity when iNOS formation was inhibited [1, 6]	cytotoxicity when iNOS formation was inhibited [2, 6]	cytotoxicity when iNOS formation was inhibited (EO771; [6])
GRLVFQ [poly6, GRLVFQ]	statistically significantly increased	cytotoxicity was induced	statistically significantly increased	cytotoxicity was induced	cytotoxicity was induced	cytotoxicity was induced	cytotoxicity was induced	–	–	–
COC(=O)[C@@H](N)CCCNC(=N)N[N+](=O)[O-] [L-NAME, reference compound]	–	–	–	–	–	–	–	reduced	reduced	reduced
